In patent US20160151377A1, “USE OF SIGMA RECEPTOR LIGANDS FOR THE PREVENTION AND TREATMENT OF PAIN ASSOCIATED TO INTERSTITIAL CYSTITIS/BLADDER PAIN SYNDROME (IC/BPS)” (LABORATORIOS DEL DR. ESTEVE S.A., priority 2013, published 2016):

What was measured:
[1] = test system: cyclophosphamide-induced cystitis; assay type: in vivo, mice
Procedure: (§1) Testing took place during the light phase (from 9.00 h to 15.00 h).

[2] = test system: cyclophosphamide-induced cystitis; conditions: cyclophosphamide 300 mg/kg i.p., WT mice
Procedure: as §1

σ1 receptors = conditions: cited from earlier work; for affinity for σ1 receptors relative to haloperidol: rodent brain membranes and human neuroblastoma cells
D2 receptors = conditions: compared with haloperidol; cited from earlier work
sigma-1 receptors = conditions: both in experimental animals and human cells; cited from earlier work
sigma receptor = conditions: cited from earlier work

With O=P1(N(CCCl)CCCl)NCCCO1 (stereo not shown) [cyclophosphamide] the “mechanical threshold for referred hyperalgesia” value ([1]; cyclophosphamide 100 mg/kg i.p., WT and σ1-KO mice) was “maximum reduction in the mechanical threshold” and the “pain score (pain-related behaviors)” value [2] was “maximum pain score”.

For OC1(c2ccc(Cl)cc2)CCNCC1 [metabolite I, 4-(4-chlorophenyl)-4-hydroxypiperidine], the “affinity for σ1 receptors relative to haloperidol” value (σ1 receptors) is listed as “less affinity than haloperidol” and the “affinity for D2 receptors” value (D2 receptors) is listed as “no affinity”.

For OC(CCCN1CCC(O)(c2ccc(Cl)cc2)CC1)c1ccc(F)cc1 (stereo not shown) [metabolite II, 4-(4-chlorophenyl)-[…]-(4-fluorophenyl)-4-hydroxy-1-piperidinebutanol], the “affinity for sigma-1 receptors” value (σ1 receptors) is given as “high affinity (in the low nanomolar range)”, the “affinity for σ1 receptors relative to haloperidol” value (σ1 receptors) is given as “less affinity than haloperidol” and the “affinity for D2 receptors” value (D2 receptors) is given as “much lower”. The “blockade of sigma-1 receptors” value (sigma-1 receptors) was “irreversible blockade”.

With CN1CC[C@]23c4c5ccc(O)c4O[C@H]2[C@@H](O)C=C[C@H]3[C@H]1C5.Cl [morphine, Morphine hydrochloride] the “50% mechanical threshold, referred mechanical hyperalgesia” value ([1]; mouse, in vivo) was “increase the mechanical threshold to above the control value”.

For CC(C)=CCN1CCC2(C)c3cc(O)ccc3CC1C2C (stereo not shown) [pentazocine], the “affinity of sigma receptors for analgesics” value (sigma receptor) is listed as “very high affinity”.
